According to patent EP0802730B1, “PESTICIDAL COMPOUNDS” (BTG INTERNATIONAL LIMITED, priority 1995, dated 1996):
≈ marks a conversion by molar mass, not a printed value. Read-outs that look alike come from different tables or passages of the source.

Legend:
[1] = system: Houseflies (MD) (Musca domestica); format: in vivo
Experimental: Female flies were treated on the thorax with a one microlitre drop of test compound dissolved in acetone. Two replicates of 15 flies were used at each dose rate and 6 dose rates were used per compound under test. After treatment, the flies were maintained at a temperature of 20° ± 1°C and kill was assessed 24 and 48 hours after treatment. LD50 values were calculated in micrograms of test compound per fly (see Sawicki et al., Bulletin of the World Health Organisation, 35, 893 (1966) and Sawicki et al., Entomologia and Exp. Appli 10, 253, (1967).

[2] = system: Mustard beetles (PC) (Phaedon cochleariae Fab); format: in vivo; conditions: NA = lack of detectable activity; for PC (LD50): 1 µl acetone drop applied ventrally to adults, kill at 48 hours
Experimental: A one microlitre drop of an acetone solution of the test compound was applied ventrally to adult mustard beetles using a micro drop applicator. The treated insects were maintained for 48 hours after which time kill was assessed. Two replicates each of 20 to 25 mustard beetles were used at each dose level and 5 dose levels were treated comparably. LD50 values were calculated as for houseflies.

[3] = system: Mites (TU) (Tetranychus urticae), susceptible strain (GSS); assay: Mite immersion test, susceptible strain GSS; format: in vivo
Experimental: 25 adult female mites were immersed in 35 µl of a solution of the test compound in a 1:4 acetone-water mixture for 30 seconds. The treated insects were maintained at 21° ± 2°C and kill was assessed 72 hours after treatment. […] Three replicates of 25 mites each were used at each dose rate and 5 or 6 dose rates were used per compound under test. LC50 values were calculated in ppm of the solution of the test compound per insect. The test was carried out using a susceptible strain of mites (GSS) supplied by Schering, AG, Berlin.

[4] = system: Whitefly (BT) (Bemisia tabaci), susceptible strain (SUD-S); assay: Whitefly residual film vial test, susceptible strain SUD-S; format: in vivo
Experimental: (§1) Acetone solutions (0.100 ml) of the test compounds were placed in 10 ml glass vials and evaporated with rotation to deposit a film of the compound. Thirty adult whiteflies were placed inside the vial, then after 60 minutes, the treated insects were transferred onto untreated cotton leaf discs which were kept moist on a bed of agar gel. The temperature was maintained at 25°C and mortality assessed after 48 hours. Three replicates were used at each of 5 to 7 dose levels per compound.

[5] = system: resistant whitefly (BT) (Bemisia tabaci), Ned 7; assay: Whitefly vial test, resistant strain Ned 7; format: in vivo; conditions: 48 h, read-out: BT (Ned 7) (LC50)
Experimental: as §1, with “per compound. LC50 values (ppm solution) were calculated by using a computer software package ("Polo-PC available from LeOra Software, Berkeley, California) (See M.R. Cahill and B. Hackett in Proceedings Brighton Crop Protection Conference, 1992). The test was carried out using a susceptible strain of whitefly (SUD-S) which was collected in Sudan in 1978 from cotton.” for “per compound.”
The test of Example 16 (BT (SUD-S)) was repeated using a resistant strain of whitefly (Ned 7). The Ned 7 strain was collected in the Netherlands in April, 1993 from hibiscus by J. Fransen and is highly resistant to organophosphate and carbamate insecticides and the insect growth regulator buprofezin.

Aspergillus niger = assay: Fungitoxicity in vitro on potato dextrose agar; format: cell-based; conditions: A. niger; 100 mg 1^-1; 4 days
[6] = system: Myzus persicae, susceptible strain (US1L); assay: Aphid dip test, susceptible strain; format: in vivo
Experimental: Activity against resistant (R) and susceptible (S) strains of aphid (Myzus persicae) was assessed using the following method.
Entrapment rings of fluon were painted halfway up the inside of 4 cm lengths of glass tubing (1.5 cm diameter), and squares of insect-proof gauze were attached to one end of each tube by elastic bands. Fifteen apterous adults were then gently transferred into the tubes using a sable-hair brush, and the tube sealed with a second gauze square.
Tubes containing aphids were dipped into insecticide solutions for 10 seconds, dried on blotting paper, and then inverted and tapped to cause treated aphids to fall to the unimmersed end of each tube. Handling mortality (usually zero or very slight) was scored after 1 hour, when aphids were transferred onto chinese cabbage leaf-discs (35 mm diameter) on an agar bed (25 mm in depth) in disposible plastic containers (30 mm high) and confined by applying a ring of fluon to the exposed lip of the container. Containers were store upright, without lids, in a constant environment facility maintained at 25°C under continuous room lighting. Mortality was assessed at 24, 48 and 72 hours. Two replicates of 15 aphids each were used at each dose rate and 5 or 6 dose rates were used per compound under test.
The test was carried out using a susceptible strain of aphids (US1L) collected in the field in East Anglia, UK and an extremely resistant strain of aphids (794Jz) (R3 esterase, sensitive AChE) collected from glasshouses in the UK.
The values given are % mortality corrected for control data. The control comprised the test solution without active ingredient.

[7] = system: Pyricularia oryzae (=Magnaporthe grisea); format: cell-based; conditions: P. oryzae; 100 mg 1^-1; 7 days
[8] = Mammalian toxicity, whole body LD50; conditions: rat, in vivo; rats
Excerpt: In addition to the specific insecticidal and acaricidal tests described above, compounds of the present invention were submitted for further tests relating to toxicity to mammals and so-called friendly species such as Chrysloperla carnea, Aleochora bilineata and Coccinella septempunctata.

Rhizoctonia solani = assay: Fungitoxicity in vitro on potato dextrose agar; format: cell-based; conditions: R. solani; 100 mg 1^-1; 4 days
[9] = ppm solution of test compound, 30 seconds immersion, kill at 72 hours, read-out: TU(GSS) (LC50)
[10] = ppm solution of test compound, 60 minutes film exposure, mortality after 48 hours, read-out: BT(SUD-S) (LC50)

SMILES | MD (LD50) ([1]; topical 1 µl drop in acetone on female flies, kill assessed 24 and 48 hours) | PC (LD50) [2] [µg/insect] | LC50 [3, 9] [µg/mL] | LC50 [4, 10] [µg/mL] | LC50 [5] [µg/mL] | LC50 ([5]; resistant strain Ned 7, ppm solution of test compound) [µg/mL] | MD LD50 (µg/insect) ([1]; Tables 10, 13, 14, NA = lack of detectable activity) | % inhibition of growth in colony diameter in agar plates, Activity at 100 mg 1^-1 (Aspergillus niger) [%] | PC LD50 (µg/insect) ([2]; Tables 10, 13, 14) | mortality at 100 ppm ([6]; read-out: MP % kill 100 ppm) [%] | mortality at 100 ppm ([6]; strain S, 100 PPM, read-out: % mortality corrected for control data) [%] | mortality at 250 ppm ([6]; strain S, 250 PPM, read-out: % mortality corrected for control data) [%] | LC50 ([3]; 72 h, Tables 10, 13, 14, susceptible strain, NA = lack of detectable activity, read-out: TU LC50 (ppm/insect)) [µg/mL] | LC50 ([4]; 48 h, Tables 10, 13, 14, susceptible strain, NA = lack of detectable activity, read-out: BT LC50 (ppm/insect)) [µg/mL] | % inhibition of growth in colony diameter in agar plates, Activity at 100 mg 1^-1 [7] [%] | LD50 [8] [mg/kg] | % inhibition of growth in colony diameter in agar plates, Activity at 100 mg 1^-1 (Rhizoctonia solani) [%]
CCCCCCCCCCCCC1=C(OC(C)=O)C(=O)c2ccccc2C1=O [Compound A, 2-n-dodecyl-3-ethanoyloxynaphthalene-1,4-dione, reference compound] | >> 20 µg/insect | 0.36 | 64 (≈ 166 µM) | 82 (≈ 213 µM) | 470 (≈ 1220 µM) | – | – | – | – | – | – | – | – | – | – | – | –
C=CC(C)(C)C1=C(OC(=O)CCC)C(=O)c2ccccc2C1=O [Example 5] | – | 6.9 | 84 (≈ 269 µM) | 13 (≈ 41.6 µM) | – | 21 (≈ 67.2 µM) | – | – | – | – | – | – | – | – | – | – | –
CC1(C2=C(O)C(=O)c3ccccc3C2=O)CCCCC1 [Example 25, 2-hydroxy-3-(1'-methylcyclohexyl)-naphthalene-1,4-dione] | – | – | – | – | – | – | 1.9 | 45 | 5 | 22 | 23 | 67 | 28 (≈ 104 µM) | 0.1 (≈ 0.37 µM) | 94 | 2790 | 93
